In patent US6608086B2, “Dihydropyridines and new uses thereof” (Synaptic Pharmaceutical Corporation, priority 1993, dated 2003):
Read-outs that look alike come from different tables or passages of the source.

Tests used:
L-type calcium channel = molecular target: T1, L-type calcium channel (Rattus norvegicus, UniProt P22002); test: Competition binding of [3H]nitrendipine to membrane fragments of rat cardiac muscle
T1 construct: membrane fragments of rat cardiac muscle; from tissue; host or cells: rat cardiac muscle membranes
Experimental: (§1) The protocols for these experiments are given below.
Determination of the Activity of al Antagonists at Calcium Channels
Briefly, the tissue was minced and homogenized in 50 mM Tris-HCl (pH 7.4) containing 0.1 mM phenylmethylsulfonyl fluoride. The homogenates were centrifuged at 1000 g for 15 minutes, the resulting supernatant was centrifuged at 45,000 g for 15 minutes. The 45,000 g pellet was suspended in buffer and centrifuged a second time. Aliquots of membrane protein were incubated for 30 minutes at 37° C. in the presence of [3H]nitrendipine (1 nM), and nonspecific binding was determined in the presence of 10 μM nifedipine. The bound radioligand was separated by filtration through GF/B filters using a cell harvester.

[1] = molecular target: T2, α1A Human Adrenergic Receptor (Homo sapiens, UniProt P25100); test: Radioligand binding, [3H]prazosin, cloned human α1A adrenergic receptor
T2 construct: The entire coding region of α1A (1719 bp); expressed in transfected cells
T2 sequence (P25100 1-572): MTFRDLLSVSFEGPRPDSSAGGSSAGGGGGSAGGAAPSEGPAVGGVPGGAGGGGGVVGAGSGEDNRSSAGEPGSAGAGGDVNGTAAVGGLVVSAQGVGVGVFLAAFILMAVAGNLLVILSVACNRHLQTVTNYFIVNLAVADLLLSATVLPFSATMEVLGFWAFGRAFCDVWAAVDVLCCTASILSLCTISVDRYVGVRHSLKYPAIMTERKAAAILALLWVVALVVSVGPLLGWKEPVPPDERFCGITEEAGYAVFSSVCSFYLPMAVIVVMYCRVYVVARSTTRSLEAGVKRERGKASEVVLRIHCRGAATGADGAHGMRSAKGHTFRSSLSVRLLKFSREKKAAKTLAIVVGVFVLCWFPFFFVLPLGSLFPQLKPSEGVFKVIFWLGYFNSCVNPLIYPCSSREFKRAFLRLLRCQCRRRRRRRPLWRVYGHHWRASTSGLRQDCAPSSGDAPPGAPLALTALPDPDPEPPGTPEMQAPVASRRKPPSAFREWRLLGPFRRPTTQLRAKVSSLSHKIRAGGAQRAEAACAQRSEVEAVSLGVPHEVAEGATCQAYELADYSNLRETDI
Outline: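 Competition binding used membrane preparations of transfected LM(tk−) cells and the α1 antagonist [3H]prazosin at 0.5 nM, incubated 20 min at 37° C in Tris-HCl buffer, pH 7.5.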

α2B receptor = molecular target: T3, α2B receptor (Homo sapiens, UniProt P18089); test: Competition binding, [3H]rauwolscine, human α2B receptor; conditions: [3H]rauwolscine, human receptor, LM(tk-) cell lysates; mean; read-out: PKi alpha-2 2b (converted)
T3 construct: host or cells: LM(tk-) cells, line L-NGC-α2B
T3 sequence (P18089 1-450): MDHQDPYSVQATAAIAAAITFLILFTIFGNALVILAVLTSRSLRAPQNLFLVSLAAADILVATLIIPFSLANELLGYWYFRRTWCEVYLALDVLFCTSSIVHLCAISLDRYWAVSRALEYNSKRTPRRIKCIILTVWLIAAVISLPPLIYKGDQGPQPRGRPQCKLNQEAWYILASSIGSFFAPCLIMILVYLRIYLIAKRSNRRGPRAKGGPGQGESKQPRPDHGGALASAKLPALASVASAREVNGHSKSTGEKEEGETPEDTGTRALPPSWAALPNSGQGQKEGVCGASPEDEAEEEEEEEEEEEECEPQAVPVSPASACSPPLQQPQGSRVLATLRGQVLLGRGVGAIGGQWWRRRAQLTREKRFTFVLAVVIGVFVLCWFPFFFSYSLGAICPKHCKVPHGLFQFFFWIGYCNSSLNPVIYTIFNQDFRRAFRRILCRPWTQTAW
Source text: as §1
(§2) α2 Human Adrenergic Receptors:
(§3) To determine the potency of […], antagonists at the α2 receptors, LM(tk−) cell lines stably transfected with the genes encoding the α2A, α2B, and α2C receptors were used. The cell line expressing the α2A receptor is designated L-α2A, and was deposited on Nov. […] The cell line expressing the α2B receptor is designated L-NGC-α2B, and was deposited on Oct. […] The cell line expressing the α2C receptor is designated L-α2C, and was deposited on Nov. […] Cell lysates were prepared as described above (see Radioligand Binding Assays), and suspended in 25 mM glycylglycine buffer (pH 7.6 at room temperature). Equilibrium competition binding assay were performed using [3H]rauwolscine (0.5 nM), and nonspecific binding was determined by incubation with 10 μM phentolamine. The bound radioligand was separated by filtration through GF/B filters using a cell harvester.

α2C receptor = molecular target: T4, α2C receptor (Homo sapiens, UniProt P18825); test: Competition binding, [3H]rauwolscine, human α2C receptor; conditions: [3H]rauwolscine, human receptor, LM(tk-) cell lysates; mean; read-out: PKi alpha-2 2c (converted)
T4 construct: host or cells: LM(tk-) cells, line L-α2C
T4 sequence (P18825 1-462): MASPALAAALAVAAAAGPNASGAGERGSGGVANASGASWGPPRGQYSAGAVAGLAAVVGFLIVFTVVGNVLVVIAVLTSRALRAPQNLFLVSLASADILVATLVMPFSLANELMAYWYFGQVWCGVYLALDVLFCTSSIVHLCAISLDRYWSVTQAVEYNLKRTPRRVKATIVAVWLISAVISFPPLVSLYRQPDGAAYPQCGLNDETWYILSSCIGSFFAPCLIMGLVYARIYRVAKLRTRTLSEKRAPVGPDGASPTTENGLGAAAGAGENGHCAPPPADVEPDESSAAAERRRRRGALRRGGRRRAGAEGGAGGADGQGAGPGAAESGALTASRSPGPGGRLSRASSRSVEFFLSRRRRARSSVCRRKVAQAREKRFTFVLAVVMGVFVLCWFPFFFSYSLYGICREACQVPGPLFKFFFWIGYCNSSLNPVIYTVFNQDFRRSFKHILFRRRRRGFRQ
Source text: as §1, §2, §3

α2A receptor = molecular target: T5, α2A receptor (Homo sapiens, UniProt P08913); test: Competition binding, [3H]rauwolscine, human α2A receptor; conditions: [3H]rauwolscine, human receptor, LM(tk-) cell lysates; mean; read-out: PKi alpha-2 2a (converted)
T5 construct: host or cells: LM(tk-) cells, line L-α2A
T5 sequence (P08913 1-465): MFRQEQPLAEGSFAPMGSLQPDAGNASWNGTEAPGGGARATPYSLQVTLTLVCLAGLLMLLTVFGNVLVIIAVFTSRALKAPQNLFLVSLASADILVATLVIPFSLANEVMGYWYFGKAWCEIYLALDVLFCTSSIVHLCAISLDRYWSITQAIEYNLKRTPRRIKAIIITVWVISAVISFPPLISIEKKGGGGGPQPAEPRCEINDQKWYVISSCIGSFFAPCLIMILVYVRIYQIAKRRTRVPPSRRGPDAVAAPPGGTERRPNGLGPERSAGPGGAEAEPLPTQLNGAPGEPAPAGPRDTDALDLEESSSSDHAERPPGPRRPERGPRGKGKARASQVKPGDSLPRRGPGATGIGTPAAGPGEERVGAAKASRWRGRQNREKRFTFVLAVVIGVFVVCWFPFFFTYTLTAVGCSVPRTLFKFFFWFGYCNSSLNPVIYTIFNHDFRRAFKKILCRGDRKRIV
Source text: as §1, §2, §3

[2] = molecular target: T6, α1B Human Adrenergic Receptor (Homo sapiens, UniProt P35368); test: Radioligand binding, [3H]prazosin, cloned human α1B adrenergic receptor; conditions: cloned human receptor, LM(tk-) cell membranes, mean, read-out: PKi alpha-1 1b (converted)
T6 construct: The entire coding region of α1B (1563 bp); expressed in transfected cells
T6 sequence (P35368 1-520): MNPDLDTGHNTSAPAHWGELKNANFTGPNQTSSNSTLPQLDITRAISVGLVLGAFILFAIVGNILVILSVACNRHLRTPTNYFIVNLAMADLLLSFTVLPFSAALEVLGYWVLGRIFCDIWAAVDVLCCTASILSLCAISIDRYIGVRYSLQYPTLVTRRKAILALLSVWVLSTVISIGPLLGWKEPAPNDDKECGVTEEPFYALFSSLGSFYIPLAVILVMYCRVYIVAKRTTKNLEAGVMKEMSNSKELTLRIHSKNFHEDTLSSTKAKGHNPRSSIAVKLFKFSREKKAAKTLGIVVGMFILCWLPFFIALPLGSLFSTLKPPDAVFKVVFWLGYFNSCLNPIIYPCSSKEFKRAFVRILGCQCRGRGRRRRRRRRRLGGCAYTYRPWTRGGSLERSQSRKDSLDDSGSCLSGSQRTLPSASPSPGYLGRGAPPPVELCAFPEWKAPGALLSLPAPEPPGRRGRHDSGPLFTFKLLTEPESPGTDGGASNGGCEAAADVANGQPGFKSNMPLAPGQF
Outline: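 Membranes from stably transfected LM(tk−) cells, resuspended in 50 mM Tris-HCl, 1 mM MgCl2, 0.1% ascorbic acid, pH 7.5, were incubated with 0.5 nM [3H]prazosin for 20 min at 37° C. Nonspecific binding defined with 10 μM phentolamine; bound ligand separated by GF/B filtration.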

[3] = molecular target: T7, α1C Human Adrenergic Receptor (Homo sapiens, UniProt P35348); test: Radioligand binding, [3H]prazosin, cloned human α1C adrenergic receptor; conditions: cloned human receptor, LM(tk-) cell membranes, mean, read-out: PKi alpha-1 1c (converted)
T7 construct: The entire coding region of α1C (1401 bp); expressed in transfected cells
T7 sequence (P35348 1-466): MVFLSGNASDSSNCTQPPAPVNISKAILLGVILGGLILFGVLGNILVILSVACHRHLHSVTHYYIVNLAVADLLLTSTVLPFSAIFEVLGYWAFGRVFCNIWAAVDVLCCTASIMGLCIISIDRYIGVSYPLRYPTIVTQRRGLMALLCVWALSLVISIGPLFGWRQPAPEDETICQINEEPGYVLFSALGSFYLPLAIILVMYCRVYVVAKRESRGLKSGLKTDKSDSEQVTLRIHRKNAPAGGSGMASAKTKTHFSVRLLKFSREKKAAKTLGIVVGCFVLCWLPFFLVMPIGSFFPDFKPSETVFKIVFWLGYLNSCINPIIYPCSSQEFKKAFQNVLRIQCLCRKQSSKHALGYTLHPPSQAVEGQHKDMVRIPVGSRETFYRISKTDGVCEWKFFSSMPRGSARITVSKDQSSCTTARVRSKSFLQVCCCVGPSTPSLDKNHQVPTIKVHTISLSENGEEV
Outline: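 LM(tk−) membranes (stable human α1C); [3H]prazosin 0.5 nM; 37° C., 20 min; Tris-HCl 50 mM/MgCl2 1 mM/ascorbate 0.1%, pH 7.5; NSB 10 μM phentolamine; GF/B filtration.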

[4] = [3H]prazosin, cloned human receptor, LM(tk-) cell membranes, mean, read-out: PKi alpha-1 1a (converted)
[5] = [3H]nitrendipine, rat cardiac muscle membranes, mean, read-out: PKi Ca (converted)

T1 sequence (P22002 whole entry, other chains not shown, the tested form may be a part): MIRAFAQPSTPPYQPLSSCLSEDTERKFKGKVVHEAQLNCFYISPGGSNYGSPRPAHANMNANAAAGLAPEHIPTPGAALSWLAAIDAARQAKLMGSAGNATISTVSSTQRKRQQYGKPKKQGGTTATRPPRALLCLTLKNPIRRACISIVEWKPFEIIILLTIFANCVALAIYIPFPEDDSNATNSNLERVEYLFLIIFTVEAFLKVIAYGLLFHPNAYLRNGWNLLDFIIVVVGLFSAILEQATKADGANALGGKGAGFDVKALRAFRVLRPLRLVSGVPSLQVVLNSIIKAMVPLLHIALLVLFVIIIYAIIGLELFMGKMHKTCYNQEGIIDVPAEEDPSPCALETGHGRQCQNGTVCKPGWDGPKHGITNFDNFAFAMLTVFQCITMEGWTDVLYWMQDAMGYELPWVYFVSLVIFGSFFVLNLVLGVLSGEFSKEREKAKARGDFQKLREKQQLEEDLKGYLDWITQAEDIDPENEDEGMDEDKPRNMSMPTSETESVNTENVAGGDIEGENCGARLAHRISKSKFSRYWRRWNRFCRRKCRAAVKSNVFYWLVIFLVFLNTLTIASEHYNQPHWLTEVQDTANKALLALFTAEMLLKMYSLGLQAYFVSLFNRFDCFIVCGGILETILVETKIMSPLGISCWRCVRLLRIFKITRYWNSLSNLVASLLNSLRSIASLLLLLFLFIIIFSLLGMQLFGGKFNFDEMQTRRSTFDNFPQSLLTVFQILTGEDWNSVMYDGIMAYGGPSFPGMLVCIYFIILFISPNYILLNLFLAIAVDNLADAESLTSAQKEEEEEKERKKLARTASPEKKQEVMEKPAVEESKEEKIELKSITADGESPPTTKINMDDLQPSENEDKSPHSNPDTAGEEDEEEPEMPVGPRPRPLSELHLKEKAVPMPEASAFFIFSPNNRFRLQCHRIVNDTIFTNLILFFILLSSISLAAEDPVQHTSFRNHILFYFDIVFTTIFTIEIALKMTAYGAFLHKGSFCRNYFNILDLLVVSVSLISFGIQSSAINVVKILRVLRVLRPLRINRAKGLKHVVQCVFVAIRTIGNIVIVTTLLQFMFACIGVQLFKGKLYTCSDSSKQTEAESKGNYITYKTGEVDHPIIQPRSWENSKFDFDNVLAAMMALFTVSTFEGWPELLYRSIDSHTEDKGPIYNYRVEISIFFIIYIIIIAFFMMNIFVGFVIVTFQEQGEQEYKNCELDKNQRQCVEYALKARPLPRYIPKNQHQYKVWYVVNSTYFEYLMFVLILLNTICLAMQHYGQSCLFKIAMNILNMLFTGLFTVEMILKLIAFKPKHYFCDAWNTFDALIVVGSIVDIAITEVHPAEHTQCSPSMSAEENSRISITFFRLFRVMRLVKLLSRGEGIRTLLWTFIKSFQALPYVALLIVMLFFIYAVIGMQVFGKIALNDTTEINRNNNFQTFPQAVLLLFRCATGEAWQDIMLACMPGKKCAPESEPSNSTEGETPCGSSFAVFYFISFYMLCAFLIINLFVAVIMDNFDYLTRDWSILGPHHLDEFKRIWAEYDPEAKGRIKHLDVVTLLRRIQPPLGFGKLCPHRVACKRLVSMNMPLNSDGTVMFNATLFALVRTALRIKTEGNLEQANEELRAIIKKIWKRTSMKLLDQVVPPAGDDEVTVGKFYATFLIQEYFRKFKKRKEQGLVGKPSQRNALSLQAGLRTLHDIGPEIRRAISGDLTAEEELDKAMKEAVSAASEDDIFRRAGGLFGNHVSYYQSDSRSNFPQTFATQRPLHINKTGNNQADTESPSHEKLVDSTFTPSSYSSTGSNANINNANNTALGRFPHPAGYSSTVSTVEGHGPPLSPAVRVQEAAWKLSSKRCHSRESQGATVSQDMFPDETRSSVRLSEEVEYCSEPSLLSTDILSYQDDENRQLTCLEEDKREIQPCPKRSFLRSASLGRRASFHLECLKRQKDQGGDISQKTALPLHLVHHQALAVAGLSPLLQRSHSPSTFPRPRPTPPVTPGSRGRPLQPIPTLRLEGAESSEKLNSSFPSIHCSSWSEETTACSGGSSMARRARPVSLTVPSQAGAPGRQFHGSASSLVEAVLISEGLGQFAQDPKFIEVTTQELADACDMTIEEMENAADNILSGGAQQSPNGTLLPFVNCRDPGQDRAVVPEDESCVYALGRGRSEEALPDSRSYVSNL
T1 sequence (P54290 25-944 partner limits assumed, other chains not shown): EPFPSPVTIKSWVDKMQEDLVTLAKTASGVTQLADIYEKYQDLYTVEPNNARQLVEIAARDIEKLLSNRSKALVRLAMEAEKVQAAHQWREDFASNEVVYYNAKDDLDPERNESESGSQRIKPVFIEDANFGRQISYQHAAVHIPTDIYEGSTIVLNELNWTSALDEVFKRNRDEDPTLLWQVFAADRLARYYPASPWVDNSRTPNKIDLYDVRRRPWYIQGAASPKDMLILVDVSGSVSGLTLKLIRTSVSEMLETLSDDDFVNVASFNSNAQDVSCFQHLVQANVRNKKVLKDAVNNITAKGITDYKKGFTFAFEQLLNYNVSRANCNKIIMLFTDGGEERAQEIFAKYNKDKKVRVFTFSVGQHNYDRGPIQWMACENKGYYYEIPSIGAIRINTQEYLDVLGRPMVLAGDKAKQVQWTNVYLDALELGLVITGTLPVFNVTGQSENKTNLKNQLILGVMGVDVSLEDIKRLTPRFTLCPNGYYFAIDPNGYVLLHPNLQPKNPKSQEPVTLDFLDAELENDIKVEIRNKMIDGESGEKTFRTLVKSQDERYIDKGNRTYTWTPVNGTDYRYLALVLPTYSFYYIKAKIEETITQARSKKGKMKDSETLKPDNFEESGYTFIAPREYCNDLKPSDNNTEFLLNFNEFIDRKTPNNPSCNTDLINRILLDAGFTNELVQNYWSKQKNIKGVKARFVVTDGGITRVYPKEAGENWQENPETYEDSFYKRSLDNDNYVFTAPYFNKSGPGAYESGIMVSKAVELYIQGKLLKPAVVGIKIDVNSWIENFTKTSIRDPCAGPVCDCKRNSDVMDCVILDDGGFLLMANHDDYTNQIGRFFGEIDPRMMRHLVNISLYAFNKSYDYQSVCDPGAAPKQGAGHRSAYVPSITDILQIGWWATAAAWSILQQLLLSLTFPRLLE
T1 sequence (P54290 945-1091 partner limits assumed, other chains not shown): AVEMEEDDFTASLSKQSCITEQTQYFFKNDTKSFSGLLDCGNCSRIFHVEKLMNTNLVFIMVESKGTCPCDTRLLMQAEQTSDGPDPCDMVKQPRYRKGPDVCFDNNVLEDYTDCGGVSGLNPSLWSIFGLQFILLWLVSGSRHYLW

Row | Ki [2] [nM] | Ki (L-type calcium channel; [5]) [nM] | Ki [3] [nM] | Compound | Ki [1, 4] [nM] | Ki (α2B receptor) [nM] | Ki (α2C receptor) [nM] | melting point [°C] | Ki (α2A receptor) [nM] | further results
1 | – | – | – | CCC1=C(C(N)=O)C(c2ccc([N+](=O)[O-])cc2)C(C(=O)NCCCN2CCC(c3ccccc3)(c3ccccc3)CC2)=C(COCCN)N1 (racemic) [(±)-144, 2-((2-Aminoethyl)oxy)methyl-5-carboxamido-6-ethyl-1,4-dihydro-4-(4-nitro)phenyl-3-(N-(3-(4,4-diphenylpiperidin-1-yl)propyl))carboxamidopyridine] | – | – | – | – | – | Ki (L-type calcium channel; [3H]nitrendipine, rat cardiac muscle membrane fragments, L-type calcium channel, read-out: pKi Ca (converted)): 12600 nM
2 | – | – | – | COC(=O)C1(c2ccccc2)CCN(CCCNC(=O)C2=C(C)NC(C)=C(C(=O)OCCO)C2c2ccc([N+](=O)[O-])cc2)CC1 (centres unmarked) [Example 207, 1,4-Dihydro-2,6-dimethyl-5-(2-hydroxyethoxycarbonyl)-3-{N-[3-(4-methoxycarbonyl-4-phenylpiperidin-1-yl)propyl]}carboxamido-4-(4-nitrophenyl)pyridine] | 1860 | 955 | 1780 | 90 to 91 | 724 | –
3 | – | – | – | CCOC(=O)C1=C(C)NC(C)=C(C(=O)NCCCN2CCC(C(=O)OC)(c3ccccc3)CC2)C1c1ccc([N+](=O)[O-])cc1 (centres unmarked) [Example 208] | 741 | 1260 | 977 | 73 to 75 | 2690 | –
4 | 7.08 | 1000 | 1.7 | CC1=C(C(N)=O)C(c2ccc([N+](=O)[O-])cc2)C(C(=O)NCCCN2CCC(c3ccccc3)CC2)=C(COCCN=[N+]=[N-])N1 (centres unmarked) [Example 216, 2-((Azidoethyl)oxy)methyl-5-carboxamido-1,4-dihydro-6-methyl-4-(4-nitro)phenyl-3-(N-(3-(4-phenylpiperidin-1-yl)propyl))carboxamidopyridine] | 60.3 | – | – | – | – | –
5 | 174 | 275000 | 34.7 | CCC1=C(C(=O)O)C(c2ccc([N+](=O)[O-])cc2)C(C(=O)NCCCN2CCC(c3ccccc3)CC2)=C(COC)N1 (centres unmarked) [Example 223, 6-Ethyl-1,4-dihydro-2-methyloxymethyl-4-(4-nitro)phenyl-3-(N-(3-(4-phenylpiperidin-1-yl)propyl))carboxamidopyridine-5-carboxylic Acid] | 891 | – | – | – | – | –

Row | Compound | Ki [2] [nM] | Ki (L-type calcium channel; [5]) [nM] | Ki [3] [nM] | Ki [1, 4] [nM] | Ki (α2B receptor) [nM] | Ki (α2C receptor) [nM] | melting point [°C] | Ki (α2A receptor) [nM] | further results
6 | CC1=C(C(N)=O)C(c2ccc([N+](=O)[O-])cc2)C(C(=O)NCCCN2CCC(c3ccccc3)(c3ccccc3)CC2)=C(COCCN)N1 (centres unmarked) [Example 217, 2-((2-Aminoethyl)oxy)methyl-5-carboxamido-1,4-dihydro-6-methyl-3-(N-(3-(4,4-diphenylpiperidin-1-yl)propyl))carboxamido-4-(4-nitro)phenylpyridine] | 447 | – | 2.45 | – | – | – | – | – | Ki ([1]; PKi alpha-1 1a): 776 nM; Ki (L-type calcium channel; PKi Ca): 8130 nM
